Patent publication US5382586A, “Aryl (or heteroaryl)piperazinylalkylazole derivatives, their preparation and their application as medicaments” (priority 1991, dated 1995)

Columns and labels:
[1] = tested on: conditioned avoidance response in male Wistar rats; test: conditioned avoidance response test (inhibition of the conditioned avoidance response; anxiolytic/tranquillising activity); type: in vivo, rat (male Wistar); settings: rat; for Activity % (inhibition of the conditioned avoidance response): D = 80 mg/kg, p.o., 45 min before test; for ED50: po, 0.75 h
Description: Male Wistar rats weighing 200 grammes which have been trained to jump over a barrier in an avoidance and escape cage (shuttle box) (Letica, reference LI 910 and LI 2700) within 30 seconds of their being introduced into the cage are used in this test.
The products having an anxiolytic or tranquillising activity suppress the conditioned avoidance response.
Training: day one: 11 trials at 3 minute intervals. Electric shock to the paws after 30 seconds (5 mA, 0.1 s, 10 s).
Days two and three: 2 trials per day, with the selected rats only [sum of the scores for the first day (with the exception of the first trial)>14].
Test day: groups formed by selected rats. Oral administration of the product or the vehicle 45 minutes before the start of the study.

[2] = tested on: norepinephrine-induced death in rats; test: norepinephrine antagonism test in rats (antihypertensive activity); type: in vivo, rat (male Wister); settings: for Activity % (norepinephrine antagonistic antihypertensive activity): D = 40 mg/kg, i.p., rat, norepinephrine 1.25 mg/kg i.v. after 2 hours; for ED50: Rattus norvegicus, ip, 2 h, read-out: ED50 (norepinephrine antagonistic antihypertensive activity)
Description: This activity is manifested by the protection of animals before death induced by an intravenous injection of norepinephrine, which produces a hypertensive attack in rats.
Male Wister rats weighing 200 grammes are used in this test. The product to be studied is administered intraperitoneally and 1.25 mg/kg (i.v.) of norepinephrine are administered after 2 hours.
The initial administration dose in these studies is 40 mg/kg (i.p.).

Compound: c1cnc(N2CCN(CCCCn3c4ccccc4c4ccccc43)CC2)nc1 [Example 2]
- Activity % (inhibition of the conditioned avoidance response) [1]: 37%
- Activity % (norepinephrine antagonistic antihypertensive activity) [2]: 0%

Compound: COc1ccccc1N1CCN(CCn2cc(Cl)cn2)CC1 [Example 41]
- Activity % (inhibition of the conditioned avoidance response) [1]: 52%
- Activity % (norepinephrine antagonistic antihypertensive activity) [2]: 75%
- ED50 [2]: 5 mg/kg

Compound: COc1ccccc1N1CCN(CCCCn2cc(Cl)cn2)CC1 [Example 29]
- Activity % (inhibition of the conditioned avoidance response) [1]: 100%
- ED50 [1]: 8.9 mg/kg
- Activity % (norepinephrine antagonistic antihypertensive activity) [2]: 100%
- ED50 [2]: 0.46 mg/kg

Compound: Cc1nc(Cl)c(Cl)n1CCCCN1CCN(c2ccccc2)CC1 [Example 36]
- Activity % (inhibition of the conditioned avoidance response) [1]: 76%
- ED50 [1]: 42 mg/kg
- Activity % (norepinephrine antagonistic antihypertensive activity) [2]: 100%
- ED50 [2]: 7.6 mg/kg

Compound: c1ccc(N2CCN(CCCCn3cccc3)CC2)cc1 [Example 34]
- Activity % (inhibition of the conditioned avoidance response) [1]: 96%
- ED50 [1]: 23.7 mg/kg
- Activity % (norepinephrine antagonistic antihypertensive activity) [2]: 100%
- ED50 [2]: 10 mg/kg

Compound: c1cnc(N2CCN(CCCCn3nnc4ccccc43)CC2)nc1 [Example 19]
- Activity % (inhibition of the conditioned avoidance response) [1]: 99%
- Activity % (norepinephrine antagonistic antihypertensive activity) [2]: 0%

Compound: Cc1cc(C(F)(F)F)n(CCCCN2CCN(c3ncccn3)CC2)n1 [Example 7]
- Activity % (inhibition of the conditioned avoidance response) [1]: 74%
- ED50 [1]: 29 mg/kg
- Activity % (norepinephrine antagonistic antihypertensive activity) [2]: 0%

Compound: CCc1nccn1CCCCN1CCN(c2ncccn2)CC1 [Example 12]
- Activity % (inhibition of the conditioned avoidance response) [1]: 46%
- Activity % (norepinephrine antagonistic antihypertensive activity) [2]: 0%

Compound: COc1ccccc1N1CCN(CCCCn2cccc2)CC1 [Example 33]
- Activity % (inhibition of the conditioned avoidance response) [1]: 99%
- ED50 [1]: 23.9 mg/kg
- Activity % (norepinephrine antagonistic antihypertensive activity) [2]: 100%
- ED50 [2]: 2.23 mg/kg

Compound: Clc1nc2ccccc2n1CCCCN1CCN(c2ncccn2)CC1 [Example 20]
- Activity % (inhibition of the conditioned avoidance response) [1]: 77%
- ED50 [1]: 15.4 mg/kg
- Activity % (norepinephrine antagonistic antihypertensive activity) [2]: 0%

Compound: COc1ccccc1N1CCN(CCCNc2cc(C)nn2C)CC1 [Example 45, 1,3-dimethyl-5-{3-[4-(2-methoxyphenyl)-1-piperazinyl]-propylamino}-1H-pyrazole]
- Activity % (inhibition of the conditioned avoidance response) [1]: 100%
- Activity % (norepinephrine antagonistic antihypertensive activity) [2]: 100%
- ED50 [2]: 2.8 mg/kg

Compound: c1cnc(N2CCN(CCCCn3ccc4ccccc43)CC2)nc1 [Example 3]
- Activity % (inhibition of the conditioned avoidance response) [1]: 74%
- ED50 [1]: 42.8 mg/kg
- Activity % (norepinephrine antagonistic antihypertensive activity) [2]: 25%

Compound: Clc1ccc2ncn(CCCCN3CCN(c4ncccn4)CC3)c2c1 [Example 22]
- Activity % (inhibition of the conditioned avoidance response) [1]: 100%
- ED50 [1]: 9.1 mg/kg
- Activity % (norepinephrine antagonistic antihypertensive activity) [2]: 0%

Compound: c1ccc(-c2c(-c3ccccc3)n(CCCCN3CCN(c4ncccn4)CC3)c3ccccc23)cc1 [Example 4]
- Activity % (inhibition of the conditioned avoidance response) [1]: 30%
- Activity % (norepinephrine antagonistic antihypertensive activity) [2]: 0%

Compound: Cc1nc(Cl)c(Cl)n1CCCCN1CCN(c2nsc3ccccc23)CC1 [Example 44]
- Activity % (inhibition of the conditioned avoidance response) [1]: 95%
- Activity % (norepinephrine antagonistic antihypertensive activity) [2]: 100%

Compound: c1cnc(N2CCN(CCCCn3cnc4cccnc43)CC2)nc1 [Example 17, 1-{4-[-4-(2-pyrimidinyl)-1-piperazinyl]-butyl}-3H-imidazo[5,4-b]pyridine]
- Activity % (inhibition of the conditioned avoidance response) [1]: 86%
- ED50 [1]: 21.9 mg/kg
- Activity % (norepinephrine antagonistic antihypertensive activity) [2]: 0%

Compound: O=C(O)c1cnn(CCCCN2CCN(c3ncccn3)CC2)c1 [Example 6, 4-carboxy-1-{4-[4-(2-pyrimidinyl)-1-piperazinyl]-butyl}-1H-pyrazole]
- Activity % (inhibition of the conditioned avoidance response) [1]: 57%
- ED50 [1]: 44.3 mg/kg
- Activity % (norepinephrine antagonistic antihypertensive activity) [2]: 75%
- ED50 [2]: 31.7 mg/kg

Compound: c1ccc(-c2nc(-c3ccccc3)n(CCCCN3CCN(c4ncccn4)CC3)c2-c2ccccc2)cc1 [Example 9]
- Activity % (inhibition of the conditioned avoidance response) [1]: 8%
- Activity % (norepinephrine antagonistic antihypertensive activity) [2]: 0%

Compound: COc1cccc(N2CCN(CCCCn3cc(Cl)cn3)CC2)c1 [Example 31]
- Activity % (inhibition of the conditioned avoidance response) [1]: 100%
- ED50 [1]: 20.8 mg/kg
- Activity % (norepinephrine antagonistic antihypertensive activity) [2]: 0%
- ED50 [2]: 8.9 mg/kg

Compound: Cc1nc(Cl)c(Cl)n1CCCCN1CCN(c2ccccc2Cl)CC1 [Example 38]
- Activity % (inhibition of the conditioned avoidance response) [1]: 78%
- Activity % (norepinephrine antagonistic antihypertensive activity) [2]: 100%
- ED50 [2]: 1.3 mg/kg

Compound: Cc1nc2ccccc2n1CCCCN1CCN(c2ncccn2)CC1 [Example 25]
- Activity % (inhibition of the conditioned avoidance response) [1]: 52%
- ED50 [1]: 61.7 mg/kg
- Activity % (norepinephrine antagonistic antihypertensive activity) [2]: 25%

Compound: COC(=O)c1cn(CCCCN2CCN(c3ncccn3)CC2)cn1 [Example 14]
- Activity % (inhibition of the conditioned avoidance response) [1]: 38%
- Activity % (norepinephrine antagonistic antihypertensive activity) [2]: 0%

Compound: Clc1cnn(CCCCN2CCN(c3nsc4ccccc34)CC2)c1 [Example 43]
- Activity % (inhibition of the conditioned avoidance response) [1]: 100%
- Activity % (norepinephrine antagonistic antihypertensive activity) [2]: 66%

Compound: Cc1nc(Cl)c(Cl)n1CCCCN1CCN(c2ncccn2)CC1 [Example 11, 4,5-dichloro-2-methyl-1-{4-[4-(2-pyrimidinyl)-1-piperazinyl]-butyl}-1H-imidazole]
- Activity % (inhibition of the conditioned avoidance response) [1]: 82%
- Activity % (norepinephrine antagonistic antihypertensive activity) [2]: 0%

Compound: Cc1cc2ncn(CCCCN3CCN(c4ncccn4)CC3)c2cc1C [Example 26]
- Activity % (inhibition of the conditioned avoidance response) [1]: 88%
- ED50 [1]: 34.5 mg/kg
- Activity % (norepinephrine antagonistic antihypertensive activity) [2]: 0%

Compound: Clc1cnn(CCCCN2CCN(c3ccccc3)CC2)c1 [Example 35, 4-chloro-1-[4-(4-phenyl-1-piperazinyl)-butyl]-1H-pyrazole]
- Activity % (inhibition of the conditioned avoidance response) [1]: 100%
- ED50 [1]: 20.7 mg/kg
- Activity % (norepinephrine antagonistic antihypertensive activity) [2]: 100%
- ED50 [2]: 4.1 mg/kg

Compound: Clc1ccc2c(c1)ncn2CCCCN1CCN(c2ncccn2)CC1 [Example 21]
- Activity % (inhibition of the conditioned avoidance response) [1]: 100%
- ED50 [1]: 9.3 mg/kg
- Activity % (norepinephrine antagonistic antihypertensive activity) [2]: 0%

Compound: c1ccc(-c2ncn(CCCCN3CCN(c4ncccn4)CC3)c2-c2ccccc2)cc1 [Example 8]
- Activity % (inhibition of the conditioned avoidance response) [1]: 29%
- Activity % (norepinephrine antagonistic antihypertensive activity) [2]: 0%

Compound: COc1ccc(N2CCN(CCCCn3cc(Cl)cn3)CC2)cc1 [Example 27]
- Activity % (inhibition of the conditioned avoidance response) [1]: 88%
- Activity % (norepinephrine antagonistic antihypertensive activity) [2]: 0%

Compound: c1cnc(N2CCN(CCCCn3cnc4ncccc43)CC2)nc1 [Example 18, 1-{4-[4-(2-pyrimidinyl)-1-piperazinyl]-butyl}-1H-imidazo[4,5-b]pyridine]
- Activity % (inhibition of the conditioned avoidance response) [1]: 91%
- ED50 [1]: 25.6 mg/kg
- Activity % (norepinephrine antagonistic antihypertensive activity) [2]: 100%
- ED50 [2]: 3.97 mg/kg

Compound: Cc1nc(-c2ccccc2)c(-c2ccccc2)n1CCCCN1CCN(c2ncccn2)CC1 [Example 10]
- Activity % (inhibition of the conditioned avoidance response) [1]: 38%
- Activity % (norepinephrine antagonistic antihypertensive activity) [2]: 0%

Compound: COc1ccccc1N1CCN(CCCCn2c(C)nc(Cl)c2Cl)CC1 [Example 30]
- Activity % (inhibition of the conditioned avoidance response) [1]: 95%
- ED50 [1]: 12.8 mg/kg
- Activity % (norepinephrine antagonistic antihypertensive activity) [2]: 100%
- ED50 [2]: 0.18 mg/kg

Compound: c1cnc(N2CCN(CCCCn3nc4ccccc4n3)CC2)nc1 [Example 24]
- Activity % (inhibition of the conditioned avoidance response) [1]: 87%
- Activity % (norepinephrine antagonistic antihypertensive activity) [2]: 50%

Compound: COc1ccc(N2CCN(CCCCn3cccc3)CC2)cc1 [Example 32]
- Activity % (inhibition of the conditioned avoidance response) [1]: 83%
- ED50 [1]: 50 mg/kg
- Activity % (norepinephrine antagonistic antihypertensive activity) [2]: 0%

Compound: c1cnc(N2CCN(CCCCn3cccc3)CC2)nc1 [Example 1, 1-{4-[4-(2-pyrimidinyl)-1-piperazinyl]-butyl}pyrrole]
- Activity % (inhibition of the conditioned avoidance response) [1]: 94%
- ED50 [1]: 32.4 mg/kg
- Activity % (norepinephrine antagonistic antihypertensive activity) [2]: 0%
